Source: the supplement of paper PMC10307832

What was measured:
Test in all cases: relative viability (nuclei count vs DMSO), 5 days (fraction); higher = more cells survive
[1] = compound: C1COCCN1C2=CC(=O)C3=C(O2)C(=CC=C3)C4=CC=CC5=C4SC6=CC=CC=C56
Procedure, shortened: (§1)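 Nuclei counted with MetaXpress define viability as the ratio of treated to vehicle wells, given as a median across plates. The lung cancer cell lines were in 1536-well plates, pinned with five √10-spaced library-drug doses and imaged at 4× after 5 days and Hoechst staining. Plates passed with control CV below 25% and at least one doubling.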

[2] = compound: CCN(CC)CCCCNc1ncc2cc(-c3cc(OC)cc(OC)c3)c(NC(=O)NC(C)(C)C)nc2n1
Procedure, shortened: as §1

[3] = compound: COCC1(CO)C(=O)C2CCN1CC2 [PRIMA-1MET]
Procedure, shortened: as §1

[4] = compound: COc1nc(C)cnc1NS(=O)(=O)c1cccnc1-c1ccc(-c2nnco2)cc1 [Zibotentan]
Procedure, shortened: as §1

[5] = compound: O=c1cc(-c2cccc3c2Sc2ccccc2S3)oc(N2CCOCC2)c1
Procedure, shortened: as §1

Cell Line	relative viability ([1]; 0.01 µM)	relative viability ([1]; 0.03162 µM)	relative viability ([1]; 0.1 µM)	relative viability ([1]; 0.3162 µM)	relative viability ([1]; 1 µM)	relative viability ([2]; 0.01 µM)	relative viability ([2]; 0.03162 µM)	relative viability ([2]; 0.1 µM)	relative viability ([2]; 0.3162 µM)	relative viability ([2]; 1 µM)	relative viability ([3]; 0.2 µM)	relative viability ([3]; 0.6325 µM)	relative viability ([3]; 2 µM)	relative viability ([3]; 6.325 µM)	relative viability ([3]; 20 µM)	relative viability ([4]; 0.08 µM)	relative viability ([4]; 0.253 µM)	relative viability ([4]; 0.8 µM)	relative viability ([4]; 2.53 µM)	relative viability ([5]; 0.08 µM)	relative viability ([5]; 0.253 µM)	relative viability ([5]; 0.8 µM)	relative viability ([5]; 2.53 µM)	relative viability ([5]; 8 µM)
LU99A	0.957	1.03	1.02	0.888	0.997	0.888	0.972	0.997	1.01	0.899	0.939	0.852	0.822	0.935	0.508	1.06	0.912	0.938	0.89	0.901	0.935	1.01	1.02	0.997
LXF-289	1.05	1.01	1.03	1.01	1.07	1.01	1.02	1.06	1.02	0.844	1.08	0.983	1.16	1.04	0.942	1.02	1.01	1.02	1.01	1.01	1.03	1.02	0.99	1.02
NCI-H23	0.981	1.11	–	1.12	1.03	0.923	1	0.957	1.08	0.977	0.904	0.754	0.814	0.909	0.201	1.05	0.91	0.89	1.1	0.776	1.11	1.02	0.846	0.879
NCI-H322M	0.895	1.01	–	0.97	0.77	0.926	0.923	1.05	1.07	0.871	1.13	0.831	–	1.11	0.838	1.03	0.818	0.906	0.983	0.841	0.969	0.848	0.879	0.875
NCI-H358	0.857	0.93	1.04	1.07	1.05	0.899	0.933	1.05	1.15	0.815	1.09	0.775	0.829	1.07	0.451	0.954	0.675	0.924	0.956	0.807	1.04	0.985	0.988	0.888
NCI-H441	1.1	0.977	1.08	0.938	1.05	1.05	1.08	1.25	1.12	0.995	1	0.87	0.812	0.99	0.713	1.11	0.828	1.3	0.985	1.02	1.27	1.23	0.971	1.1
NCI-H460	0.971	0.993	1.01	1	0.989	0.994	1.05	1.14	1.09	0.959	1.01	0.859	0.86	1.02	0.592	1.04	0.838	0.926	0.995	1	1.13	0.918	0.935	1.08
